From US20040142981A1, “Antibacterial benzoic acid derivatives” (priority 2002, published 2004)
Converted amounts (≈) assume the structure as drawn.

What was measured:
SAUR 9218 = assay: MIC by standard agar dilution method; assay type: cell-based; settings: Mueller Hinton agar, incubated overnight at 35° C., lowest concentration that inhibits visible growth
Procedure: MIC Test Method The in vitro MICs of test compounds were determined by a standard agar dilution method. A stock drug solution of each analog was prepared in the preferred solvent, usually DMSO:H2O (1:3). Serial 2-fold dilutions of each sample are made using 1.0 ml aliquots of sterile distilled water. To each 1.0 ml aliquot of drug was added 9 ml of molten Mueller Hinton agar medium. The drug-supplemented agar was mixed, poured into 15×100 mm petri dishes, and allowed to solidify and dry prior to inoculation. Vials of each of the test organisms are maintained frozen in the vapor phase of a liquid nitrogen freezer. Test cultures are grown overnight at 35° C. on the medium appropriate for the organism. Colonies are harvested with a sterile swab, and cell suspensions are prepared in Trypticase Soy broth (TSB) to equal the turbidity of a 0.5 McFarland standard. A 1:20 dilution of each suspension was made in TSB. The plates containing the drug supplemented agar are inoculated with a 0.001 ml drop of the cell suspension using a Steers replicator, yielding approximately 10^4 to 10^5 cells per spot. The plates are incubated overnight at 35° C. Following incubation the Minimum Inhibitory Concentration (MIC μg/ml), the lowest concentration of drug that inhibits visible growth of the organism, was read and recorded.

## N#Cc1ccc(NC(=O)c2cc3cccc(S(=O)(=O)c4ccccc4)c3[nH]2)c(-c2nnn[nH]2)c1 [Example 25, N-[4-cyano-2-(1H-tetraazol-5-yl)phenyl]-7-(phenylsulfonyl)-1H-indole-2-carboxamide]
other
  melting point: 293 to 295 °C
SAUR 9218
  MIC: 0.125 µg/mL (≈ 0.266 µM)

## N#Cc1ccc(NC(=O)c2cccc(S(=O)(=O)N3CCOCC3)c2)c(-c2nnn[nH]2)c1 [Example 20, N-[4-cyano-2-(1H-tetraazol-5-yl)phenyl]-3-(morpholin-4-ylsulfonyl)benzamide]
other
  melting point: 230 to 232 °C
SAUR 9218
  MIC: 64 µg/mL (≈ 146 µM)

## CC(C)(C)C(=O)OCn1nnc(-c2cc(Br)ccc2NC(=O)c2cccc(S(=O)(=O)N3CCOCC3)c2)n1 [Example 21, [5-(5-bromo-2-{[3-(morpholin-4-ylsulfonyl)benzoyl]amino}phenyl)-2H-tetraazol-2-yl]methyl pivalate]
other
  melting point: 210 to 212 °C
SAUR 9218
  MIC: > 64 µg/mL

## N#Cc1ccc(NC(=O)c2ccc(S(=O)(=O)N3CCc4cc(Cl)ccc43)cc2)c(-c2n[nH]c(=O)o2)c1 [Example 22, 4-[(5-chloro-2,3-dihydro-1H-indol-1-yl)sulfonyl]-N-[4-cyano-2-(5-oxo-4,5-dihydro-1,3,4-oxadiazol-2-yl)phenyl]benzamide]
other
  melting point: 262 to 264 °C
SAUR 9218
  MIC: 32 µg/mL (≈ 61.3 µM)

## O=C(Nc1ccc(Br)cc1-c1nnn[nH]1)c1cccc(S(=O)(=O)N2CCOCC2)c1 [Example 17, N-[4-bromo-2-(1H-tetraazol-5-yl)phenyl]-3-(morpholin-4-ylsulfonyl)benzamide]
other
  melting point: 228 to 230 °C
SAUR 9218
  MIC: 64 µg/mL (≈ 130 µM)

## N#Cc1ccc(NC(=O)c2cccc(S(=O)(=O)N3CCOCC3)c2)c(-c2n[nH]c(=O)o2)c1 [Example 18, N-[4-cyano-2-(5-oxo-4,5-dihydro-1,3,4-oxadiazol-2-yl)phenyl]-3-(morpholin-4-ylsulfonyl)benzamide]
other
  melting point: 283 to 285 °C
SAUR 9218
  MIC: > 128 µg/mL
